According to patent US12582638B2, “Pharmaceutical composition for treating cancer, containing mTOR-signaling inhibitor as active ingredient” (KOREA ADVANCED INSTITUTE OF SCIENCE AND TECHNOLOGY, priority 2020, dated 2026):

Tests used:
[1] = tested on: EPLC-272H; test: Cell viability, CellTiterGlo, 72 hours; format: cell-based; settings: Homo sapiens, EPLC-272H cells, Lung
Protocol: (§1) In addition to the colorectal cells, 120 cancer cell lines treated with various concentrations of lomitapide were assayed for viability. To analyze cell viability, the cells were incubated with lomitapide at 37° C. for 72 hours in a 5% or 10% CO2 atmosphere and then equilibrated at room temperature for 1 hour, followed by addition of CellTiterGlo reagent (Promega). One hour later, luminescence was measured to calculate cell viability (%). The 120 cell lines were purchased from ATCC (American Type Culture Collection, Virginia, USA).

[2] = tested on: MDA MB 231; test: Cell viability, CellTiterGlo, 72 hours; format: cell-based; settings: Homo sapiens, MDA MB 231 cells, Breast
Protocol: as §1

[3] = tested on: PANC-1; test: Cell viability, CellTiterGlo, 72 hours; format: cell-based; settings: Homo sapiens, PANC-1 cells, Pancreas
Protocol: as §1

[4] = tested on: NCI-H1573; test: Cell viability, CellTiterGlo, 72 hours; format: cell-based; settings: Homo sapiens, NCI-H1573 cells, Lung
Protocol: as §1

[5] = tested on: EFM-192A; test: Cell viability, CellTiterGlo, 72 hours; format: cell-based; settings: EFM-192A cells, Breast
Protocol: as §1

[6] = tested on: P31/FUJ; test: Cell viability, CellTiterGlo, 72 hours; format: cell-based; settings: Homo sapiens, P31/FUJ cells, Blood
Protocol: as §1

[7] = tested on: OPM-2; test: Cell viability, CellTiterGlo, 72 hours; format: cell-based; settings: Homo sapiens, OPM-2 cells, Blood
Protocol: as §1

[8] = tested on: SK-LU-1; test: Cell viability, CellTiterGlo, 72 hours; format: cell-based; settings: Homo sapiens, SK-LU-1 cells, Lung
Protocol: as §1

[9] = tested on: OCI-AML5; test: Cell viability, CellTiterGlo, 72 hours; format: cell-based; settings: Homo sapiens, OCI-AML-5, OCI-AML5 cells, Blood
Protocol: as §1

[10] = tested on: JIMT-1; test: Cell viability, CellTiterGlo, 72 hours; format: cell-based; settings: Homo sapiens, JIMT-1 cells, Breast
Protocol: as §1

[11] = tested on: RKO; test: Cell viability, CellTiterGlo, 72 hours; format: cell-based; settings: Homo sapiens, RKO cells, Colon
Protocol: as §1

[12] = tested on: NCI-N87; test: Cell viability, CellTiterGlo, 72 hours; format: cell-based; settings: Homo sapiens, NCI-N87 cells, Stomach
Protocol: as §1

[13] = tested on: NCI-H1563; test: Cell viability, CellTiterGlo, 72 hours; format: cell-based; settings: Homo sapiens, NCI-H1563 cells, Lung
Protocol: as §1

[14] = tested on: Saos-2 EC; test: Cell viability, CellTiterGlo, 72 hours; format: cell-based; settings: Homo sapiens, Saos-2 EC cells, Bone
Protocol: as §1

[15] = tested on: EFO-27; test: Cell viability, CellTiterGlo, 72 hours; format: cell-based; settings: Homo sapiens, EFO-27 cells, Ovary
Protocol: as §1

[16] = tested on: COV434; test: Cell viability, CellTiterGlo, 72 hours; format: cell-based; settings: COV434 cells, Ovary
Protocol: In addition to the colorectal cells, 120 cancer cell lines treated with various concentrations of lomitapide were assayed for viability.
as §1, with “To” for “In addition to the colorectal cells, 120 cancer cell lines treated with various concentrations of lomitapide were assayed for viability. To”

[17] = tested on: p-S6K, p-S6, LC3; test: Cell signaling assay, western blot, MDA-MB-468; format: cell-based, human; settings: 0, 5, and 10 μM, FIG. 7d
Protocol: (§2) Cells treated with various concentrations (0, 5, and 10 μM) of lomitapide were lysed with RIPA buffer containing a protease-inhibitor cocktail. The whole-cell lysate was incubated on ice for 30 minutes. After centrifugation at 4° C. and 13,300×g for 15 minutes, the supernatant was collected. For use as controls, HCT116, SW480, HT29, MDA-MB-231, and MDA-MB-468 cells were treated with 1 μM of torin, known as an mTOR inhibitor.
(§3) For western blot analysis, the supernatant was loaded onto 10% SDS-PAGE gel. The separated proteins were blotted onto a PVDF membrane. Then, the blots were incubated with antibodies at 4° C. for 12 hours as follows (Table 2).
(§4) Then, the blots were washed with TBST (a mixture of tris-buffered saline (TBS) and Tween 20), incubated with horseradish peroxidase-conjugated secondary antibody (Cell signaling) at 37° C. for 1 hour, and washed, followed by detecting enhanced chemiluminescence (ECL; Amersham).

[18] = tested on: p-S6K, p-S6, LC3; test: Cell signaling assay, western blot, HT29; format: cell-based, human; settings: 0, 5, and 10 μM, FIG. 7b
Protocol: as §2, §3, §4

[19] = tested on: p-AMPK, LC3, p-ULK1; test: Autophagy assay, western blot, HCT116; format: cell-based, human; settings: 0, 5, and 10 μM, FIG. 8
Protocol: HCT116 cells treated with various concentration (0, 5, and 10 μM) of lomitapide were analyzed for change in cell autophagy-related cell signaling pathway by western blotting. To this end, the supernatant obtained in Example 3 was loaded onto 10% SDS-PAGE gel. The proteins thus separated were blotted onto a PVDF membrane. Then, the blots were incubated with anti-p-AMPK, anti-LC3, anti-p-ULK1 antibodies (Cell Signaling Technology, Massachusetts, USA) at 4° C. for 12 hours. Afterward, the blots were washed with TBST (a mixture of tris-buffered saline (TBS) and Tween 20), incubated with horseradish peroxidase-conjugated secondary antibody (Cell signaling) at 37° C. for 1 hour, and washed, followed by detecting enhanced chemiluminescence (ECL; Amersham).

[20] = tested on: SW480; test: Viability assay for lomitapide-treated colorectal cells (CellTiter-Glo, 24); format: cell-based, human; settings: 0, 1, 2, 5, and 10 μM, dose-dependent
Protocol: (§5) NCM460, HCT116, HT29, and SW480 cell lines were each seeded at a density of 10^4 cells/well into 96-well plates and incubated 37° C. for 24 hours before treatment with various concentrations (0, 1, 2, 5, and 10 μM) of lomitapide (Sigma Aldrich, Missouri, USA). After treatment of the cells with lomitapide at 37° C. for 24 in a 5% CO2 atmosphere, 100 μL of an assay reagent (CellTiter-Glo® Reagent) was added to each well. Then, luminescence was read using VICTOR X Multilabel Reader (PerkinElmer, Massachusetts, USA) and used to calculate cell viability (%). Results are depicted in FIGS. 2 to 4.

[21] = tested on: HT29; test: as above; format: cell-based, human; settings: 0, 1, 2, 5, and 10 μM, dose-dependent
Protocol: as §5

[22] = tested on: HCT116; test: as above; format: cell-based, human
Protocol: as §5

O=C(NC1CCN(CCCCC2(C(=O)NCC(F)(F)F)c3ccccc3-c3ccccc32)CC1)c1ccccc1-c1ccc(C(F)(F)F)cc1 [lomitapide, N-(2,2,2-trifluoroethyl)-9-[4-[4-[[[4′-(trifluoromethyl)[1,1′-biphenyl]2-yl]carbonyl]amino]-1-piperidinyl]butyl]-9H-fluoren-9-carboxamide]
IC50 [1]: 3.1 µM
IC50 [2]: 3.2 µM
IC50 [3]: 4.5 µM
IC50 [4]: 4.7 µM
IC50 [5]: 4 µM
IC50 [6]: 3.1 µM
IC50 [7]: 4.4 µM
IC50 [8]: 4.6 µM
IC50 [9]: 2.7 µM
IC50 [10]: 3.3 µM
IC50 [11]: 3.3 µM
IC50 [12]: 3.3 µM
IC50 [13]: 5.3 µM
IC50 [14]: 3.6 µM
IC50 [15]: 4 µM
IC50 [16]: 3.1 µM
conversion from LC3I into LC3II [17]: increased induction of conversion from LC3I into LC3II
phosphorylation levels of target proteins (p-S6K and p-S6) [17]: remarkably decreased phosphorylation levels
conversion from LC3I into LC3II [18]: increased induction of conversion from LC3I into LC3II
phosphorylation levels of target proteins (p-S6K and p-S6) [18]: remarkably decreased phosphorylation levels
conversion from LC3I into LC3II [19]: significantly increased induction of conversion from LC3I into LC3II
phosphorylation level of AMPK ([19]; dose-dependent): remarkably increased
cell viability [20]: reduced the viability
cell viability [21]: reduced the viability
cell viability ([22]; HCT116, 0, 1, 2, 5, and 10 μM, dose-dependent): reduced the viability
cell viability of cancer cells compared to normal cells ([22]; HCT116 vs normal human colonic epithelial cells (NCM460), FIG. 2): decreased cell viability
